Source: patent US7662825B2, “N-pyrazinyl-phenylsulphonamides and their use in the treatment of chemokine mediated diseases” (AstraZeneca AB, priority 2002, dated 2010)

In the case of `O=S(=O)(Nc1ncc(-c2ccncc2)nc1OCc1cccnc1)c1cccc(Cl)c1Cl` [Example 136, 2,3-Dichloro-N-[5-(4-pyridinyl)-3-(3-pyridinylmethoxy)-2-pyrazinyl]benzenesulphonaminde], the melting point is reported as 210 °C (dec.). Work on `COc1nc(CO)cnc1NS(=O)(=O)c1cccc(Cl)c1Cl` [Example 138] yielded a melting point of 160 to 161 °C. `C=CCOc1cnc(NS(=O)(=O)c2cccc(Cl)c2Cl)c(OC)n1` [Example 139, N-(5-Allyloxy-3-methoxy-2-pyrazinyl)-2,3-dichlorobenzenesulphonamide] gave a melting point of 120 to 121 °C. With `COc1nc(COc2cnccn2)cnc1NS(=O)(=O)c1cccc(Cl)c1Cl` [Example 140, 2,3-Dichloro-N-{3-methoxy-5-[(pyrazinyloxy)methyl]-2-pyrazinyl}benzenesulphonamide] the melting point was 155 °C (dec.). In the case of `O=S(=O)(Nc1ncc(Cl)nc1OCc1cncc(Br)c1)c1cccc(Cl)c1Cl` [Example 142, N-{3-[(5-Bromo-3-pyridinyl)methoxy]-5-chloro-2-pyrazinyl}-2,3-dichlorobenzenesulphonamide], the melting point is reported as 199 to 201 °C. In the case of `O=S(=O)(Nc1ncc(Cl)nc1OCc1cccc(CO)n1)c1cccc(Cl)c1Cl` [Example 143, 2,3-Dichloro-N-[5-chloro-3-{[6-(hydroxymethyl)-2-pyridinyl]methoxy}-2-pyrazinyl]benzenesulphonamide], the melting point is reported as 220 °C. Work on `Cc1nc(COc2nc(Cl)cnc2NS(=O)(=O)c2cccc(Cl)c2Cl)co1` [Example 144, 2,3-Dichloro-N-{5-chloro-3-[(2-methyl-4-oxazolyl)methoxy]-2-pyrazinyl}benzenesulphonamide] yielded a melting point of 172 to 173 °C. `CCOc1cnc(NS(=O)(=O)c2cccc(Cl)c2Cl)c(OC)n1` [Example 166, 2,3-Dichloro-N-(5-ethoxy-3-methoxy-2-pyrazinyl)benzenesulphonamide] showed a melting point of 96 to 97 °C. `COc1nc(-n2cncn2)cnc1NS(=O)(=O)c1cccc(Cl)c1Cl` [Example 167, 2,3-Dichloro-N-[3-methoxy-5-([1,2,4]-1-triazolyl)-2-pyrazinyl]benzenesulphonamide] showed a melting point of 248 to 249 °C. Work on `CNC(=O)CSc1cnc(NS(=O)(=O)c2cccc(Cl)c2Cl)c(OC)n1` [Example 168, 2-[5-(2,3-Dichlorobenzenesulphonylamino)-6methoxy-2-pyrazinylsulphanyl]-N-methylacetamide] yielded a melting point of 150 to 152 °C. For `COc1nc(SCC(N)=O)cnc1NS(=O)(=O)c1cccc(Cl)c1Cl` [Example 169, 2-[5-(2,3-Dichlorobenzenesulphonylamino)-6-methoxy-2-pyrazinylsulphanyl]acetamide], the melting point was 163 to 164 °C. In the case of `COc1nc(SCc2ccc(F)cc2)cnc1NS(=O)(=O)c1cccc(Cl)c1Cl` [Example 170, 2,3-Dichloro-N-[5-(4-fluorobenzylsulphanyl)-3-methoxy-2-pyrazinyl]benzenesulphonamide], the melting point is reported as 119 to 120 °C. For `COc1nc(SCC#N)cnc1NS(=O)(=O)c1cccc(Cl)c1Cl` [Example 171, 2,3-Dichloro-N-[5-cyanomethylsulphanyl-3-methoxy-2-pyrazinyl]benzenesulphonamide], the melting point was 158 to 159 °C. Compound `COc1nc(SCc2ncon2)cnc1NS(=O)(=O)c1cccc(Cl)c1Cl` [Example 172, 2,3-Dichloro-N-[3-methoxy-5-([1,2,4]-3-oxadiazolylmethylsulphanyl)-2-pyrazinyl]benzenesulphonamide] has a melting point of 154 to 156 °C. `COc1nc(SCCN)cnc1NS(=O)(=O)c1cccc(Cl)c1Cl` [Example 173, N-[5-(2-Aminoethylsulphanyl)-3-methoxy-2-pyrazinyl]-2,3-dichlorobenzenesulphonamide] showed a melting point of 189 to 190 °C. `COc1nc(OCc2cc(C)on2)cnc1NS(=O)(=O)c1cccc(Cl)c1Cl` [Example 174] showed a melting point of 142 to 143 °C. Work on `COc1nc(OCc2ccc(CN(C)C)o2)cnc1NS(=O)(=O)c1cccc(Cl)c1Cl` [Example 175, 2,3-Dichloro-N-[5-(5-dimethylaminomethyl-2-furanylmethoxy)-3-methoxy-2-pyrazinyl]benzenesulphonamide] yielded a melting point of 114 to 115 °C. In the case of `CN(C)Cc1ccc(COc2nc(Br)cnc2NS(=O)(=O)c2cccc(Cl)c2Cl)o1` [Example 176, N-[5-Bromo-3-(5-dimethylaminomethyl-2-furanylmethoxy)-2-pyrazinyl]-2,3-dichloro-benzenesulphonamide], the melting point is reported as 206 to 207 °C. With `COc1nc(SCCO)cnc1NS(=O)(=O)c1cccc(Cl)c1Cl` [Example 177, 2,3-Dichloro-N-[5-(2-hydroxyethylsulphanyl)-3-methoxy-2-pyrazinyl]benzenesulphonamide] the melting point was 180 to 181 °C. `CN(C)Cc1ccc(COc2ncc(Cl)nc2NS(=O)(=O)c2cccc(Cl)c2Cl)o1` [Example 180, 2,3-Dichloro-N-[6-chloro-3-(5-dimethylaminomethyl-2-furanylmethoxy)-2-pyrazinyl]benzenesulphonamide] showed a melting point of 209 to 210 °C. With `CN(C)Cc1ccc(COc2nc(Cl)cnc2NS(=O)(=O)c2cccc(Cl)c2Cl)o1` [Example 182, 2,3-Dichloro-N-[5-chloro-3-(5-dimethylaninomethyl-2-furanylmethoxy)-2-pyrazinyl]benzenesulphonamide] the melting point was 209 to 210 °C. For `CNCc1ccc(COc2nccnc2NS(=O)(=O)c2cccc(Cl)c2Cl)o1` [Example 183, 2,3-Dichloro-N-[3-(5-methylaminomethyl-2-furanylmethoxy)-2-pyrazinyl]benzenesulphonamide], the melting point was 198 to 199 °C. With `COc1nc(Br)cnc1NS(=O)(=O)c1ccccc1C#N` [Example 184, N-(5-Bromo-3-methoxypyrazinyl)-2-cyanobenzenesulphonamide] the melting point was 190 to 191.5 °C. For `COc1nc(Br)cnc1NS(=O)(=O)c1ccc(F)c(Cl)c1Cl` [Example 185, N-(5-Bromo-3-methoxypyrazinyl)-2,3-dichloro-4-fluorobenzenesulphonamide], the melting point was 208 to 211 °C. With `C=CCOc1nc(Cl)cnc1NS(=O)(=O)c1cccc(Cl)c1Cl` [Example 187, N-(3-Allyloxy-5-chloro-2-pyrazinyl)-2,3-dichlorobenzenesulphonamide] the melting point was 145 to 146 °C. For `C#CCOc1nc(Cl)cnc1NS(=O)(=O)c1cccc(Cl)c1Cl` [Example 188, 2,3-Dichloro-N-[5-chloro-3-(2-propynyloxy)-2-pyrazinyl]benzenesulphonamide], the melting point was 138 to 139 °C. In the case of `C#CCOc1nccnc1NS(=O)(=O)c1cccc(Cl)c1Cl` [Example 189, 2,3-Dichloro-N-[3-(2-propynyloxy)-2-pyrazinyl)benzenesulphonamide], the melting point is reported as 153 to 154 °C. In the case of `COc1nc(C#N)cnc1NS(=O)(=O)c1cccc(Cl)c1Cl` [Example 190, 2,3-Dichloro-N-(5-cyano-3-methoxy-2-pyrazinyl)benzenesulphonamide], the melting point is reported as 239 to 240 °C. Work on `COc1ncc(C)nc1NS(=O)(=O)c1cccc(Cl)c1Cl` [Example 194, 2,3-Dichloro-N-(3-methoxy-6-methyl-2-pyrazinyl)benzenesulphonamide] yielded a melting point of 50 to 60 °C. `COc1nc(Cn2cncn2)cnc1NS(=O)(=O)c1cccc(Cl)c1Cl` [Example 195, 2,3-Dichloro-N-[3-methoxy-5-(1H-1,2,4-triazol-1-ylmethyl)-2-pyrazinyl]benzenesulphonamide] showed a melting point of 95 to 105 °C. With `NCc1ccc(COc2nc(Cl)cnc2NS(=O)(=O)c2cccc(Cl)c2Cl)o1` [Example 196, N-(3-(5-Aminomethyl-2-furanylmethoxy)-5-chloro-2-pyrazinyl)-2,3-dichloro-benzenesulphonamide] the melting point was 201 to 202 °C. In the case of `NCc1ccc(COc2nccnc2NS(=O)(=O)c2cccc(Cl)c2Cl)o1` [Example 197, N-(3-(5-Aminomethyl-2-furanylmethoxy)-2-pyrazinyl)-2,3-dichlorobenzenesulphonamide], the melting point is reported as 199 to 201 °C. `C#CCOc1cnc(NS(=O)(=O)c2cccc(Cl)c2Cl)c(OC)n1` [Example 198, 2,3-Dichloro-N-[3-methoxy-5-(2-propyn-1-yloxy)-2-pyrazinyl]benzenesulphonamide] showed a melting point of 110 to 112 °C. Compound `COC(=O)COc1cnc(NS(=O)(=O)c2cccc(Cl)c2Cl)c(OC)n1` [Example 199, {[5-(2,3-Dichlorophenylsulfonylamino)-6-methoxy-2-pyrazinyl]oxy}acetic acid, methyl ester] has a melting point of 185 to 190 °C. For `COc1nc(NC(=O)CO)cnc1NS(=O)(=O)c1cccc(Cl)c1Cl` [Example 200, N-[5-(2,3-Dichlorophenylsulphonylamino)-6-methoxy-2-pyrazinyl]-2-hydroxyacetamide], the melting point was 153 to 155 °C. Compound `COC(=O)c1cnc(OC)c(NS(=O)(=O)c2cccc(Cl)c2Cl)n1` [Example 201, 6-(2,3-Dichlorophenylsulphonylamino)-5-methoxy-2-pyrazinecarboxylic acid, methyl ester] has a melting point of 90 to 92 °C. Compound `COc1ncc(CO)nc1NS(=O)(=O)c1cccc(Cl)c1Cl` [Example 202, 2,3-Dichloro-N-[6-(hydroxymethyl)-3-methoxy-2-pyrazinyl]benzenesulphonamide] has a melting point of 153 to 155 °C. For `COc1nc(S(C)(=O)=O)cnc1NS(=O)(=O)c1cccc(Cl)c1Cl` [Example 203, 2,3-Dichloro-N-(5-methanesulphonyl-3-methoxy-2-pyrazinyl)benzenesulphonamide], the melting point was 237 to 238 °C. Compound `CCN(CC)C(=O)COc1cnc(NS(=O)(=O)c2cccc(Cl)c2Cl)c(OC)n1` [Example 204, 2-[5-(2,3-Dichlorobenzenesulphonylamino)-6-methoxy-2-pyrazinyloxy]-N,N-diethyl-acetamide] has a melting point of 117 to 118 °C. `COc1nc(SCCN(C)C)cnc1NS(=O)(=O)c1cccc(Cl)c1Cl` [Example 205, 2,3-Dichloro-N-{5-[2-(dimethylamino)ethylsulphanyl]-3-methoxy-2-pyrazinyl]benzenesulphonamide] showed a melting point of 117 to 118 °C. `COc1nc(C(F)F)cnc1NS(=O)(=O)c1cccc(Cl)c1Cl` [Example 206, 2,3-Dichloro-N-(5-difluoromethyl-3-methoxy-2-pyrazinyl)benzenesulphonamide] showed a melting point of 117 to 118 °C.
